Among the data in patent US20260297087A1, “Pyridoimidazolone Compounds, Preparation Thereof and Therapeutic Uses Thereof” (Sanofi, priority 2023, published 2026) are IC50 values, retold here.

For assay [1], the target named is T1, ERK5 (activated catalytic domain) (Homo sapiens, UniProt Q13164).
T1 construct: purchased CarnaBiosciences 04-146
Nature of the assay: Cell-Free Assay of ERK5 Inhibition (Time-Resolved FRET, 4EBP1 peptide phosphorylation). It is filed as biochemical. The conditions noted are these: ERK5 catalytic domain 4 nM, 1 mM ATP, 1 μM biotinylated 4EBP1 peptide, 30 min at 37° C.; mean where repeated; read-out: Cell-free assay (IC50 in nM). How it is done: (§1) Two assays were performed to assess the ERK5 inhibitory activity of compounds of the Examples, a cell-based assay and a cell-free biochemical assay. Where repeat measurements were taken, the value reported is a mean average.
An assay was performed to measure the capacity of each compound to inhibit ERK5 enzymatic activity. Compound potency was evaluated by Time-Resolved Forster Resonance Energy Transfer (FRET system). The activated catalytic domain of protein ERK5 (CarnaBiosciences #04-146) was mixed at 4 nM with varying concentrations of compound and incubated for 30 minutes at room temperature. A mixture of 1 mM ATP and 1 μM biotinylated synthetic peptide was added (Biosyntan GmbH). This synthetic peptide represents amino acids 30-52 of Eukaryotic translation initiation factor 4E-binding protein 1 (see, e.g., the sequence under accession No. NP_004086.1) biotinylated at the N-terminus. After 30 minutes at 37° C., the peptide phosphorylation by ERK5 was measured by addition of FRET reagents consisting of 12.5 μg/ml Streptavidin-XL665, 1 nM Anti-P-4EBP1 antibody and 300 ng/ml Anti-rabbit-K antibody. Following 90 minutes at room temperature fluorescent signals were read on the Pherastar FSX multimod detector from BMG Labtech (Exc° 340 nm, Em1 620 nm, Em2 665 nm). The IC50 values represent the concentration of compound which inhibits the measurable fluorescence signal by 50% as compared to the DMSO only control.

A further assay concerns the target T2, ERK5 (Homo sapiens, UniProt Q13164).
T2 construct: MEF2-luciferase reporter
The experiment in a line: Inhibition of Cellular ERK5 Activity (cell-based assay, MEF2 luciferase reporter in SN12C cells). The conditions noted are these: renal cancer cell line SN12C, doxycycline-induced MEKSDD, mean where repeated. The method, then: as §1
The renal cancer cell line SN12C was transduced by a lentivirus pGreenFire1 MEF2 EF1 Neo (ref TR030VA-N) from SBI using standard infection protocol. pGreenFire1 MEF2 EF1 Neo allows the expression of luciferase gene under the control of minimal promoter with MEF2 transcriptional response elements. Cells harboring the reporter construct were selected by geneticin treatment. The selected cells were then transposed by a piggyback based plasmid pCM4007 allowing the expression of constitutively activated MEKSDD under control of TREG3 promoter, a doxycycline regulated promoter. Transposed cells were selected by puromycin treatment. Upon doxycycline treatment (1p g/ml) MEKSDD was expressed. MEKSDD activates ERK5 that phosphorylates MEF2C protein. Activated MEF2C protein can bind to its transcriptional response elements. Then the luciferase is expressed. In a 96-well plate (96F nuncleon refl37101 thermofisher), 50,000 cells were inoculated in 142.5 μl of RPMI medium containing 10% fetal calf serum, 1% glutamine, and 1 μg/ml doxycycline. After 24 hours, compounds were added in 7.5 μl culture medium (with 2% DMSO to give a final concentration of 0.1%) in order to obtain the desired concentration (0.3-1000 nM). The luciferase activity was measured using the Kit Bright Glo Luminescent Cell Assay Cat E2610 (Promega) according to the manufacturer's protocol. Luminescence was determined using 0.2 second reading/well using a Tecan SPARK. IC50 values were calculated using XLFIT5 for Microsoft Excel using method 205. The IC50 values represent the concentration of compound which inhibits the measurable luminescence signal by 50% as compared to DMSO-treated control cells.
On the technique in general: In a reporter assay the amount or activity of a reporter protein is the signal.

T2 sequence (Q13164 whole entry): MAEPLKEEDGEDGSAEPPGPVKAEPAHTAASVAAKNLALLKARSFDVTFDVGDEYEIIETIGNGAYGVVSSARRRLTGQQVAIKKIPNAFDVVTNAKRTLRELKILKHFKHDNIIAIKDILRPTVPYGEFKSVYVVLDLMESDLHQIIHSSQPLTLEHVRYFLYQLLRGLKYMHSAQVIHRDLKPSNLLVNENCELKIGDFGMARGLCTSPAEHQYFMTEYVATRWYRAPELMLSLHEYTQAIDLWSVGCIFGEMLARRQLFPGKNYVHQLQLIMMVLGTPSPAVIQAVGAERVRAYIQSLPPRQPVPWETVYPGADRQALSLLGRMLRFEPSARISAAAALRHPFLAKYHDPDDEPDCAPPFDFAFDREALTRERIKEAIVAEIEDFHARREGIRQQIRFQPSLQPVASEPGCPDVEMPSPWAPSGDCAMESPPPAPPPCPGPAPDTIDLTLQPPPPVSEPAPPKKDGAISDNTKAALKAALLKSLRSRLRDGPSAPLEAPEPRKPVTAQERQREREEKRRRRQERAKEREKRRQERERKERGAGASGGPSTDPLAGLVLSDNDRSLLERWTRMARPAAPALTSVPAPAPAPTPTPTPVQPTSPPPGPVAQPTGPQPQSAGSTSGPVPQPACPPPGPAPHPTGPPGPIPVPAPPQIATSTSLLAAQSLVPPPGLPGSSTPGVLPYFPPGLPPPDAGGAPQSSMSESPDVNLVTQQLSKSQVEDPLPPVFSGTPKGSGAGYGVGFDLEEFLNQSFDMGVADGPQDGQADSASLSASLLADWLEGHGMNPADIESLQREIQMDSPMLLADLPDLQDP
T1 sequence (Q13164 55-347 limits assumed): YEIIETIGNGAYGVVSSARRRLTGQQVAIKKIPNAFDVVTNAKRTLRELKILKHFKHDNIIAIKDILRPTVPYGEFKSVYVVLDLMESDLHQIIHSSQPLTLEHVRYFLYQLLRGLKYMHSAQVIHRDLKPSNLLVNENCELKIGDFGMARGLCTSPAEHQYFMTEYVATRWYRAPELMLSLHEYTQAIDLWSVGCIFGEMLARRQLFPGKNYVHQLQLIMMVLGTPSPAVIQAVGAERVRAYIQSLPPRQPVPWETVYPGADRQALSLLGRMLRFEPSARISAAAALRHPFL

A word on the IC50: it is the midpoint of a concentration-inhibition curve. In the case of `Nc1cc(OC(F)(F)F)ccc1C(=O)N1CCC(n2c(=O)[nH]c3ncc(C4CCC(F)(F)CC4)cc32)CC1` [Example 35, 1-[1-[2-amino-4-(trifluoromethoxy)benzoyl]-4-piperidyl]-6-(4,4-difluorocyclohexyl)-3H-imidazo[4,5-b]pyridin-2-one], the 50% inhibitory concentration (IC50) came out at 695 nM in assay [1] and 205 nM on ERK5.

`CN1CCC(Oc2cnc3[nH]c(=O)n(C4CCN(C(=O)c5ccc(OC(F)(F)F)cc5N)CC4)c3c2)CC1` [Example 7, 1-[1-[2-amino-4-(trifluoromethoxy)benzoyl]-4-piperidyl]-6-[(1-methyl-4-piperidyl)oxy]-3H-imidazo[4,5-b]pyridin-2-one]: the half-inhibitory concentration (IC50) in assay [1] was 63 nM; against ERK5, 248 nM.

As to `O=C(c1ccc(OC(F)(F)F)cc1)N1CCC(n2c(=O)[nH]c3ncc(OC4CCOCC4)cc32)CC1` [Example 4, 6-tetrahydropyran-4-yloxy-1-[1-[4-(trifluoromethoxy)benzoyl]-4-piperidyl]-3H-imidazo[4,5-b]pyridin-2-one], the IC50 is 135 nM in assay [1] and 132 nM on ERK5.

`O=C(c1ccc(OC(F)(F)F)cc1)N1CCC(n2c(=O)[nH]c3ncc([C@H]4CC[C@H](O)CC4)cc32)CC1` [Example 57, trans-6-(4-hydroxycyclohexyl)-1-[1-[4-(trifluoromethoxy)benzoyl]-4-piperidyl]-3H-imidazo[4,5-b]pyridine-2-one]: the results for the IC50 (in assay [1]; against ERK5) were 180 nM and 204 nM, respectively.

For the molecule `Nc1cc(OC(F)(F)F)ccc1C(=O)N1CCC(n2c(=O)[nH]c3ncc([C@H]4CC[C@H](O)CC4)cc32)CC1` [Example 51, trans-1-[1-[2-amino-4-(trifluoromethoxy)benzoyl]-4-piperidyl]-6-(4-hydroxycyclohexyl)-3H-imidazo[4,5-b]pyridin-2-one], the results for the half-inhibitory concentration (IC50) (in assay [1]; on ERK5) were 52 nM and 205 nM, respectively.

For the molecule `CN1CCC(Oc2cnc3[nH]c(=O)n(C4CCN(C(=O)c5ccc(OC(F)(F)F)cc5N)CC4)c3c2)C1` (single isomer, unassigned; isomer 1) [Example 47, 1-[1-[2-amino-4-(trifluoromethoxy)benzoyl]-4-piperidyl]-6-[1-methylpyrrolidin-3-yl]oxy-3H-imidazo[4,5-b]pyridin-2-one, Isomer 1], the IC50 in assay [1] turned out to be 239 nM; against ERK5 it was 273 nM.

Take `COCCc1cnc2[nH]c(=O)n(C3CCN(C(=O)c4ccc(OC(F)(F)F)cc4N)CC3)c2c1` [Example 24, 1-[1-[2-amino-4-(trifluoromethoxy)benzoyl]-4-piperidyl]-6-(2-methoxyethyl)-3H-imidazo[4,5-b]pyridin-2-one]: the half-inhibitory concentration (IC50) in assay [1] amounted to 502 nM; against ERK5, 67 nM.

As to `CN1CCC(c2cnc3[nH]c(=O)n(C4CCN(C(=O)c5ccc(OC(F)(F)F)cc5N)CC4)c3c2)CC1` [Example 54, 1-[1-[2-amino-4-(trifluoromethoxy)benzoyl]-4-piperidyl]-6-(1-methyl-4-piperidyl)-3H-imidazo[4,5-b]pyridin-2-one], the results for the half-inhibitory concentration (IC50) (in assay [1]; against ERK5) were 78 nM and 168 nM, respectively.

For the molecule `Nc1cc(S(F)(F)(F)(F)F)ccc1C(=O)N1CCC(n2c(=O)[nH]c3ncc(C4CCOCC4)cc32)C1` (racemic) [Example 49, (rac)-1-[1-[2-amino-4-(pentafluoro-λ^6-sulfanyl)benzoyl]pyrrolidin-3-yl]-6-tetrahydropyran-4-yl-3H-imidazo[4,5-b]pyridin-2-one], the IC50 in assay [1] worked out at 587 nM; against ERK5 it was 278 nM.

For the molecule `Nc1cc(OC(F)(F)F)ccc1C(=O)N1CCC(n2c(=O)[nH]c3ncc(CC4CCOCC4)cc32)CC1` [Example 39, 1-[1-[2-amino-4-(trifluoromethoxy)benzoyl]-4-piperidyl]-6-(tetrahydropyran-4-ylmethyl)-3H-imidazo[4,5-b]pyridin-2-one], the IC50 was found to be 117 nM in assay [1] and 75 nM at ERK5.

As for `O=C(c1ccc(OC(F)(F)F)cc1)N1CCC(n2c(=O)[nH]c3ncc(OC4CCOC4)cc32)CC1` (racemic) [Example 56, (rac)-6-tetrahydrofuran-3-yloxy-1-[1-[4-(trifluoromethoxy)benzoyl]-4-piperidyl]-3H-imidazo[4,5-b]pyridin-2-one], the half-inhibitory concentration (IC50) in assay [1] is 430 nM; against ERK5, 96 nM.

Consider `Nc1cc(OC(F)(F)F)ccc1C(=O)N1CCC(n2c(=O)[nH]c3ncc(C4CC5(CC(F)C5)C4)cc32)CC1` (centres unmarked) [Example 21, 1-[1-[2-amino-4-(trifluoromethoxy)benzoyl]-4-piperidyl]-6-(2-fluorospiro[3.3]heptan-6-yl)-3H-imidazo[4,5-b]pyridin-2-one], for which the IC50 stood at 395 nM in assay [1] and 42 nM on ERK5.

For the molecule `Cc1nc2[nH]c(=O)n(C3CCN(C(=O)c4ccc(OC(F)(F)F)cc4N)CC3)c2cc1C1CCOCC1` [Example 20, 1-[1-[2-amino-4-(trifluoromethoxy)benzoyl]-4-piperidyl]-5-methyl-6-tetrahydropyran-4-yl-3H-imidazo[4,5-b]pyridin-2-one], the IC50 in assay [1] turned out to be 1100 nM; against ERK5, 486 nM.

As to `Nc1cc(OC(F)(F)F)ccc1C(=O)N1CCC(n2c(=O)[nH]c3ncc(C4CCOCC4)cc32)CC1` [Example 2, 1-[1-[2-amino-4-(trifluoromethoxy)benzoyl]-4-piperidyl]-6-tetrahydropyran-4-yl-3H-imidazo[4,5-b]pyridin-2-one], the results for the 50% inhibitory concentration (IC50) (in assay [1]; against ERK5) were 48 nM and 68 nM, respectively.

For the molecule `O=C(c1ccc(OC(F)(F)F)cc1)N1CCC(n2c(=O)[nH]c3ncc(N4CCOCC4)cc32)CC1` [Example 8, 6-N-morpholino-1-[1-[4-(trifluoromethoxy)benzoyl]-4-piperidyl]-3H-imidazo[4,5-b]pyridin-2-one], the values for the IC50 (in assay [1]; at ERK5) were 505 nM and 279 nM, respectively.

For the molecule `O=C(c1ccc(S(F)(F)(F)(F)F)cc1)N1CCC(n2c(=O)[nH]c3ncc(C4CCOCC4)cc32)CC1` [Example 19, 1-[1-[4-(Pentafluoro-λ^6-sulfanyl)benzoyl]-4-piperidyl]-6-tetrahydropyran-4-yl-3H-imidazo[4,5-b]pyridin-2-one], the IC50 came to 257 nM in assay [1] and 199 nM at ERK5.

In the case of `Nc1cc(OC(F)(F)F)ccc1C(=O)N1CCC(n2c(=O)[nH]c3ncc(C4CC5CCC4C5)cc32)CC1` (centres unmarked) [Example 37, 1-[1-[2-amino-4-(trifluoromethoxy)benzoyl]-4-piperidyl]-6-norbornan-2-yl-3H-imidazo[4,5-b]pyridin-2-one], the IC50 in assay [1] was found to be 681 nM; at ERK5 it was 167 nM.

`Nc1cc(OC(F)(F)F)ccc1C(=O)N1CCC(n2c(=O)[nH]c3ncc([C@H]4CC[C@@H](O)CC4)cc32)CC1` [Example 52, cis-1-[1-[2-amino-4-(trifluoromethoxy)benzoyl]-4-piperidyl]-6-(4-hydroxycyclohexyl)-3H-imidazo[4,5-b]pyridin-2-one]: the results for the 50% inhibitory concentration (IC50) (in assay [1]; on ERK5) were 97 nM and 244 nM, respectively.

Turning to `O=C(c1ccc(OC(F)(F)F)cc1)N1CCC(n2c(=O)[nH]c3ncc(CC4COC4)cc32)CC1` [Example 42, 6-(oxetan-3-ylmethyl)-1-[1-[4-(trifluoromethoxy)benzoyl]-4-piperidyl]-3H-imidazo[4,5-b]pyridin-2-one], the IC50 in assay [1] was 354 nM; against ERK5, 136 nM.
